# Where a name gives a salt, the structure may show the parent alone.
# Assays:
# [1] = test system: anaphylactic asthma in guinea-pigs; test: Inhibition test of anaphylactic asthma in guinea-pigs; type: in vivo; conditions: intraperitoneal, survived more than 7 minutes
# Experimental: (c) Guinea-pig antiserum against egg albumin
# A solution of egg albumin (10 mg.) in normal saline (1 ml.) was mixed with incomplete adjuvant (1 ml.) to give an emulsion. The emulsion was given subcutaneously in a single dose of 0.4 ml. divided equally (0.1 ml.) to the four pads of male Hartley strain guinea-pigs, each weighing 350-380 g.
# Two weeks after the administration, a solution of egg albumin (1 mg.) in normal saline (1 ml.) was further given subcutaneously in a single dose of 0.4 ml divided equally (0.1 ml.) to the four pads of the same guinea-pigs.
# Subsequently, one week and two weeks after the second adminstration, the guinea-pigs were treated in substantially the same manner as the above second administration.
# One week after the final administration, blood samples were collected from the guinea-pigs and treated in substantially the same manner as described in the above item (a). The antisera thus obtained were stored at -80° C. prior to use.
# (3) Inhibition test of anaphylactic asthma in guinea-pigs
# To ten male Hartley strain guinea-pigs, weighing 300 g was given intravenously the guinea-pig antiserum against egg albumin (0.1 ml.), respectively. Twenty four hours after the administration, each of the guinea-pigs was put individually into each of boxes (innercapacity: 5.3 liters). A normal saline containing egg albumine (1%) was continuously sprayed with a nebulizer into the boxes.
# Beforehand, one hour and 30 seconds before putting the guinea-pigs into each of the boxes, a normal saline (1 ml.) containing the prescribed amount of N-methylaurotetanine hydrochloride and carboxymethylcellulose (0.5%) was given intraperitoneally to five guinea-pigs and a normal saline (1 ml.) containing only carboxymethylcellulose (0.5%) was given intraperitoneally to each of the remaining 5 guinea-pigs. Time till the test animal was suffocated to death, was measured and when animals survived more than 7 minutes, inhibition of anaphylactic asthma were judged as effective. Survival (%) was calculated by the following formula: [formula]
# [2] = test system: P.C.A. reaction in S.D. strain rats; test: Inhibition test of P.C.A. reaction in S.D. strain rats, rat hyperimmune antiserum against egg albumin; type: in vivo
# Experimental: (b) Rat hyperimmune antiserum against egg albumin
# A solution of egg albumin (20 mg.) in normal saline (1 ml.) was mixed with complete adjuvant (1 ml.) (made by Difco Laboratories) to given an emulsion. The emulsion was subcutaneously given in a single dose of 1 ml. divided equally (0.25 ml.) to the four pads of male S.D. strain rats aged 6 weeks, each weighing about 200 g. (The first immunization).
# One week after the administration, an emulsion which was prepared by mixing a solution of egg albumin (10 mg.) in normal saline (1 ml.) with complete adjuvant (1 ml.) was further given subcutaneously (at 3 places) and intramuscularly (at 1 place) in a single dose of 1 ml. divided equally (0.25 ml.) to thigh of the same rats. (The second immunization).
# Three weeks after the second administration, a solution of egg albumin (1 mg.) in normal saline (1 ml.) was further given intracutaneously in a single dose of 0.3 ml. divided equally (0.1 ml.) to 3 places of the same rats. (The third immunization).
# One week after the third administration, blood samples were collected from rats and treated in substantially the same manner as described in the above item (a). The antisera thus obtained were stored at -80° C. prior to use.
# (2) Inhibition test of P.C.A. (Passive Cutaneous Anaphylaxis) reaction
# (a) Inhibitory effect on P.C.A. reaction in S.D. strain rats
# Fifteen male S.D. strain rats aged 8 weeks, each weighing about 270 g were divided equally into 3 groups.
# A rat reaginic antiserum (0.07 ml.) as prepared by the above (1)-(a) was given intracutaneously to the depilated back of each rat of Group I and Group II. On the other hand, a rat normal serum (0.07 ml.) was given intracutaneously to the depilated back of each rat of Group III, respectively.
# Thirty hours after the administration, a normal saline (0.5 ml.) containing egg albumin (7.5 mg.) and Evans blue (2.5 mg.) was intravenously given to each rat of Groups I-III in order to bring about P.C.A., respectively.
# Beforehand, 3 hours, 1 hour and […] before the intravenous administration to bring about P.C.A., a normal saline (1 ml.) containing the prescribed amount of N-methyllaurotetanine hydrochloride and carboxymethylcellulose (0.5 %) was given orally, intraperitoneally or intravenously to each rat of Group I and a normal saline (1 ml.) containing only carboxymethylcellulose (0.5% was also given orally, intraperitoneally or intravenously to each rat of Group II.
# Thirty minutes after challenge with antigen, the animals were sacrificed and then skinned. To each of the sensitized spots punched, was added a mixture (7 ml.) of acetone and 2% aqueous sodium alkylbenzenesulfonate solution (4:1) and then the mixture was homogenized. The homogenate was shaken at ambient temperature for 2 hours and filtered. Optical density at 620 nm of the filtrate was determined and from the value of the optical density, inhibitory effect of P.C.A. reaction was calculated by using the following equation. [formula] A: Optical Density Value of Group II B: Optical Density Value of Group I
# C: Optical Density Value of Group III
# Further, an inhibition test on P.C.A. reaction using the rat hyperimmuneantiserum against egg albumin was carried out in substantially the same manner as described in the above, excepting that the intravenous administration to bring about P.C.A. was carried out at 5.5 hours after the administration of the serum and antiserum. And inhibitory effect on the P.C.A. reaction was also calculated in substantially the same manner as described in the above.
compound,measurement,setting,value
COc1cc2c(cc1O)CC1c3c(cc(OC)c(OC)c3-2)CCN1C (stereo not drawn) [N-Methyllaurotetanine hydrochloride],Survival,[1]; 30 mg/kg,0%
same,Survival,[1]; 60 mg/kg,40%
same,Survival,[1]; 120 mg/kg,80%
same,Inhibitory effect on P.C.A. reaction,"[2]; intraperitoneal, 4 mg/kg",20%
same,Inhibitory effect on P.C.A. reaction,"[2]; intraperitoneal, 13 mg/kg",60%
same,Inhibitory effect on P.C.A. reaction,"[2]; intraperitoneal, 40 mg/kg",72%
same,ED50,[2]; intravenous,4 mg/kg
same,Inhibitory effect on P.C.A. reaction,"[2]; intravenous, 1 mg/kg",23%
same,Inhibitory effect on P.C.A. reaction,"[2]; intravenous, 3 mg/kg",46%
same,Inhibitory effect on P.C.A. reaction,"[2]; intravenous, 9 mg/kg",65%
same,ED50,"[2]; ip, intraperitoneal",11 mg/kg
same,ED50,[2]; oral,110 mg/kg
same,Inhibitory effect on P.C.A. reaction,"[2]; oral, 20 mg/kg",42%
same,Inhibitory effect on P.C.A. reaction,"[2]; oral, 66 mg/kg",33%
same,Inhibitory effect on P.C.A. reaction,"[2]; oral, 200 mg/kg",81%

# — patent US4185119A, “Antiallergic methods” (priority 1977, dated 1980)
